The values that follow come from patent publication US20230404969A1, “COMPOSITIONS AND METHOD FOR EFFECTIVE MANAGEMENT OF PERITONITIS” (priority 2022, published 2023).

For one test, the system named is TNF-α. Kind of test: Extracellular in vivo TNF-α estimation in serum from treated mice after LPS injection (ELISA). Particulars: 1 mg/kg p.o for 6 days, serum 90 mins after LPS injection, ↑ upregulation. On the procedure:
BALM male mice aged 6-8 weeks were maintained at 22±2° C. under 12/12 h light dark cycle. Mice received oral treatment of test drugs at graded doses (w/v) for 6 days, followed by intravenous injection of 1 mg/kg (Brieva et al. Immunoferon, a glycoconjugate of natural origin, inhibits LPS-induced TNF-α production and inflammatory responses. International Immunopharmacology (2001) 1, 1979-1987). Six mice were employed in each group and experiments were performed in triplicates. Blood was collected from retro-orbital plexus of the experimental animals and serum was separated. TNF-α, IL-1β production was evaluated by a commercial ELISA kit in serum from treated mice, 90 mins after LPS injection.

A further test has as its system Procalcitonin. The test is described as follows: Procalcitonin in serum (ELISA), chronic zymosan peritonitis. The class given is in vivo, mouse. Particulars: 2 mg/kg. On the procedure: (§1) Peritoneal inflammation was induced by Zymosan A (Sigma Chemical) (Masashi et al. Zymosan, but Not Lipopolysaccharide, Triggers Severe and Progressive Peritoneal Injury Accompanied by complement Activation in a Rat Peritonitis Model) was prepared freshly in sterile, 0.9% w/v saline, and 0.5 ml was injected i.p. from day 0 to Day 5. The lymphocyte population in the peripheral blood was determined with a flow cytometer. Cells were phenotyped by flow cytometry with the following primary antibodies: CD4 (FITC) and CD8 (PE). Cells were gated broadly on all live lymphocyte cells, with only debris and multiple cell clusters being excluded. Analysis of mean fluorescence intensity was done and percentage cell population was evaluated. The test drugs were administered for 30 days after the induction of peritonitis. On 36th day the peritoneal cavity was lavaged with 1.5 ml saline, and after a 30-s gentle manual massage, 0.5 ml exudate was retrieved, centrifuged at 3000 g for 3 min, and frozen at 220° C. prior to cytokine and chemotactic-factor assessment.
Procalcitonin is a precursor for calcitonin, a peptide hormone involved in calcium homeostasis. In response to pro-inflammatory stimulus of bacterial origin, the procalcitonin level rises. The blood was collected from retro-orbital plexus from the animals of all groups. The blood was allowed to stand for 2 hrs without addition of anti-coagulant. […]

The test system of another test is IFN-γ. The test is described as follows: Cytometric Bead Array of peritoneal fluid, chronic zymosan peritonitis: IFN-γ. It counts as in vivo, mouse. The settings on record: 2 mg/kg, vs Zymosan control. How it is done:
as §1, with “The test drugs were administered for 30 days after the induction of peritonitis. On 36th day the peritoneal cavity was lavaged with 1.5 ml saline, and after a 30-s gentle manual massage, 0.5 ml exudate was retrieved, centrifuged at 3000 g for 3 min, and frozen at 220° C. prior to cytokine and chemotactic-factor assessment.” left out
The Cytometric Bead Array (Mouse Inflammation kit) was used to study cytokines in peritoneal fluid. […] Briefly, a mixture of 6 capture bead populations (50 μl) with distinct fluorescence intensities (detected in FL3) coated with antibodies specific for the above cytokines was mixed with each sample/standard (50 μl). […] Following acquisition of data by two colour cytometric analysis, the sample results were analysed using CBA software (BD Biosciences). […] Individual cytokine concentration ratios were indicated by their fluorescent intensities and was determined by interpolation from the corresponding standard curve.

For test [1], the system named is polymorphonuclear leukocytes, macrophages, lymphocytes. Kind of test: Zymosan A induced peritonitis, acute study: intraperitoneal cellular influx. The class given is in vivo, BALB/c male mice. The settings on record: 2 mg/kg p.o (of 0.5, 1, 2, 4 mg/kg); 4, 12, 24 and 48 hrs after Zymosan A i.p. On the procedure:
Peritoneal inflammation was induced according to Doherty et al. in BALB/c male mice aged 6-8 weeks. Zymosan A (Sigma Chemical) was prepared freshly (2 mg/ml) in sterile, 0.9% w/v saline, and 0.5 ml was injected i.p. Zymosan A is a cell wall component of fungus, caused proliferative peritonitis with severe accumulation of inflammatory cells. At the selected time points 4, 12, 24 and 48 hrs, the peritoneal cavity was lavaged with 1.5 ml saline, and after a 30-s gentle manual massage, 0.5 ml exudate was retrieved, centrifuged at 3000 g for 3 min. 0.5 ml exudate was collected and used freshly for cell counts.

Test [2] deals with Membrane attack complex (MAC). The test is described as follows: Membrane attack complex in peritoneal exudate (ELISA), chronic zymosan peritonitis. The class given is in vivo, mouse. Particulars: 2 mg/kg, day 36. On the procedure:
as §1
Assembly of Membrane attack complex (MAC) results from the complex pathway starting from C5 convertase cleaving C5 to form C5a and C5b. […] The protein concentrations were carried out by means of colorimetric measurement at 450 nm on an ELISA plate reader by interpolation from a standard curve. […]
(In general: In an ELISA, binding on a coated surface is turned into a signal by an enzyme label.)

On to `CC1=C(C)C(=O)O[C@@H]([C@@H](C)[C@@]2(O)CC[C@H]3[C@@H]4[C@@H]5O[C@@H]5[C@@]5(O)CC=CC(=O)[C@]5(C)[C@H]4CC[C@@]32C)C1` [Withanone], for which, in the test with TNF-α, the “Percentage TNF-α inhibition compared to LPS control” value was 37.05%. Also, the “Decrease of expression level of procalcitonin compared to the Zymosan control” value in the test on Procalcitonin is on record as around 60%. The “Inhibition of IFN-γ” value in the test on IFN-γ worked out at 44%. Further, the “Inhibition of intraperitoneal cellular influx” value in test [1] is reported as “maximum effect in inhibiting cellular influx”. Moreover, in test [2], the “Decrease of expression levels of MAC compared to the Zymosan control” value is listed as 56%.
